Results from US9757364B2, “Naphthyridine derivative compounds” (ASTEX THERAPEUTICS LIMITED, priority 2011, dated 2017).
Where two headings read alike, the source gives them in different places.

What was measured:
Experiment in all cases: cells
[1] = system: Ba/F3-Flt3-transfected cells; details: read-out: BAF3-FLT3 (MIN IL3) pIC50 (converted)
Description: Ba/F3-Flt3 (Minus IL3 or Plus IL3) (Cellular Proliferation Assay)
(§1) Cells were put in an incubator at 37° C. and 5% CO2.
(§2) As a counterscreen the same experiment was performed in the presence of 10 ng/ml murine IL3.

[2] = system: Ba/F3-KDR-transfected cells
Description: Ba/F3-KDR (Minus IL3 or Plus IL3) (Cellular Proliferation Assay)
as §1, §2

[3] = system: Ba/F3-FGFR1-transfected cells
Description: Ba/F3-FGFR1 (Minus IL3 or Plus IL3) (Cellular Proliferation Assay)
as §1, §2

[4] = read-out: BAF3-KDR (MIN IL3) pIC50 (converted)
[5] = read-out: BAF3-KDR (PLUS IL3) pIC50 (converted)

COc1cc(OC)cc(N(CCCO)c2ccc3ncc(-c4cnn(C)c4)cc3n2)c1 [Compound 2]
IC50 ([1]; 24 h): > 10 µM

COc1cc(OC)cc(N(Cc2nccn2S(=O)(=O)N(C)C)c2ccc3ncc(-c4cnn(C)c4)cc3n2)c1 [Compound 7]
IC50 ([1]; 24 h): > 10 µM

COc1cc(OC)c(F)c(N(Cc2ncc[nH]2)c2cc3cc(-c4cnn(C)c4)cnc3cn2)c1 [Compound 77]
IC50 [2, 4]: > 10 µM | IC50 [2, 5]: > 10 µM

COc1cc(OC)c(F)c(N(CCCO)c2ccc3ncc(-c4cnn(C)c4)cc3n2)c1F [Compound 22]
IC50 [1]: 3.89 µM

COCCN(c1cc(OC)cc(OC)c1)c1cc2cc(-c3cnn(C)c3)cnc2cn1 [Compound 69]
IC50 ([3]; read-out: BAF3-FGFR1 (MIN IL3) pIC50 (converted)): 8.13 µM | IC50 ([3]; read-out: BAF3-FGFR1 (PLUS IL3) pIC50 (converted)): > 10 µM | IC50 [2, 4]: > 10 µM | IC50 [2, 5]: > 10 µM

COc1cc(OC)cc(N(Cc2ncc[nH]2)c2ccc3ncc(-c4cnn(C)c4)cc3n2)c1 [Compound 10]
IC50 ([1]; 24 h): > 10 µM

COc1cc(OC)c(F)c(N(CCCO)c2cc3cc(-c4cnn(C)c4)cnc3cn2)c1 [Compound 75]
IC50 [2, 4]: > 10 µM | IC50 [2, 5]: > 10 µM

COc1cc(OC)cc(N(CCO)c2ccc3ncc(-c4cnn(C)c4)cc3n2)c1 [Compound 1]
IC50 ([1]; 24 h): 8.91 µM

COc1cc(OC)c(F)c(N(Cc2ncccn2)c2ccc3ncc(-c4cnn(C)c4)cc3n2)c1 [Compound 27]
IC50 [1]: > 10 µM

COc1cc(OC)cc(N(CCNC(C)C)c2ccc3ncc(-c4cnn(C)c4)cc3n2)c1 [Compound 4]
IC50 ([1]; 24 h): 7.94 µM

C#CCN(c1cc(OC)cc(OC)c1)c1ccc2ncc(-c3cnn(C)c3)cc2n1 [Compound 8]
IC50 ([1]; 24 h): > 10 µM

COc1cc(OC)c(F)c(N(Cc2nccn2S(=O)(=O)N(C)C)c2ccc3ncc(-c4cnn(C)c4)cc3n2)c1F [Compound 64]
IC50 [1]: 2.45 µM

COCCN(c1cc(OC)cc(OC)c1)c1ccc2ncc(-c3cnn(C)c3)cc2n1 [Compound 3]
IC50 ([1]; 24 h): > 10 µM

COc1cc(/N=c2\ccc3ncc(-c4cnn(C)c4)cc3n2CCNC(C)C)cc(OC)c1 [Compound 5]
IC50 ([1]; 24 h): > 10 µM

COc1cc(OC)c(F)c(N(Cc2ncc[nH]2)c2ccc3ncc(-c4cnn(C)c4)cc3n2)c1F [Compound 65]
IC50 [1]: 3.55 µM

COc1cc(OC)c(F)c(N(Cc2nccn2S(=O)(=O)N(C)C)c2cc3cc(-c4cnn(C)c4)cnc3cn2)c1 [Compound 76]
IC50 [2, 4]: > 10 µM | IC50 [2, 5]: > 10 µM

COc1cc(OC)cc(N(Cc2nccn2S(=O)(=O)N(C)C)c2cc3cc(-c4cnn(C)c4)cnc3cn2)c1 [Compound 66]
IC50 [2, 4]: > 10 µM | IC50 [2, 5]: > 10 µM

COc1cc(OC)cc(N(Cc2ncc[nH]2)c2cc3cc(-c4cnn(C)c4)cnc3cn2)c1 [Compound 67]
IC50 [2, 4]: > 10 µM | IC50 [2, 5]: > 10 µM

COc1cc(OC)c(F)c(N(Cc2ncccn2)c2ccc3ncc(-c4cnn(C)c4)cc3n2)c1F [Compound 14]
IC50 [1]: 7.76 µM

COc1cc(OC)cc(N(CCNC(C)C)c2cc3cc(-c4cnn(C)c4)cnc3cn2)c1 [Compound 68]
IC50 [2, 4]: > 10 µM | IC50 [2, 5]: > 10 µM

COc1cc(OC)cc(N(CCN(CCNC(C)C)C(C)C)c2ccc3ncc(-c4cnn(C)c4)cc3n2)c1 [Compound 6]
IC50 ([1]; 24 h): 5.01 µM

CNCCN(c1cc2cc(-c3cnn(C)c3)cnc2cn1)c1cc(OC)cc(OC)c1F [Compound 73]
IC50 [2, 4]: > 10 µM | IC50 [2, 5]: > 10 µM
